Source: patent US8338565B2, “Macrocyclic compounds for inhibition of tumor necrosis factor alpha” (Ensemble Therapeutics Corporation, priority 2008, dated 2012)
Where two headings read alike, the source gives them in different places. Numbered stars: 1 amine (or outer) side, 2 acyl side, 3 side chain; on linkers, the order of the positions; unused ones are H or OH. Bridge positions count the residues as written; N and C are the ends. Square brackets hold non-standard residues; d marks the D form. Peptide text beside a SMILES is read from it. * marks the point of attachment. Tartaroyl(2R,3R-(OAc)2) = CC(=O)O[C@@H](C(=O)[*:1])[C@@H](OC(C)=O)C(=O)[*:2]; Phe(3-Ph) = N[C@@H](Cc1cccc(-c2ccccc2)c1)C(=O)O; Phe(4-CF3) = N[C@@H](Cc1ccc(C(F)(F)F)cc1)C(=O)O; Phe(4-COOH) = N[C@@H](Cc1ccc(C(=O)O)cc1)C(=O)O; Bip = N[C@@H](Cc1ccc(-c2ccccc2)cc1)C(=O)O; dPhe(4-NH2) = Nc1ccc(C[C@@H](N)C(=O)O)cc1; Phe(4-Br) = N[C@@H](Cc1ccc(Br)cc1)C(=O)O; Phe(4-Cl) = N[C@@H](Cc1ccc(Cl)cc1)C(=O)O; dPhe(2-CN) = N#Cc1ccccc1C[C@@H](N)C(=O)O; Phe(4-NH2) = Nc1ccc(C[C@H](N)C(=O)O)cc1; d(hPhe) = N[C@H](CCc1ccccc1)C(=O)O; d2Thi = N[C@H](Cc1cccs1)C(=O)O; d3Thi = N[C@H](Cc1ccsc1)C(=O)O; Suc = O=C(CCC(=O)[*:2])[*:1]; Dap = NC[C@H](N)C(=O)O; X1 = O=C(O)C1CCN(*)C1

Biological target: T1, TNFα / TNFα receptor (TNFα R1/Fc) (Homo sapiens, UniProt P01375)
T1 construct: purchased R&D Systems
T1 sequence (P01375 77-233 limits assumed, species assumed): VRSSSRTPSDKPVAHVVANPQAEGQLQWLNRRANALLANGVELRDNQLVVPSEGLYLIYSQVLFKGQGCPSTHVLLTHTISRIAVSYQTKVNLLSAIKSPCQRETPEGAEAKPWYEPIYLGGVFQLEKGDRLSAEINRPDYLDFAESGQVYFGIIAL
Test: Inhibition of binding of TNFα to the TNFα receptor (plate ELISA competition)
Details: Table 2
In short: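 Compound dilutions were preincubated 30 min at RT with 8.33 nM TNFα R1/Fc in PBST with 2% DMSO, then added to wells coated with 15 nM TNFα for 30 min. Bound receptor was detected with HRP anti-human Fc and TMB, read as A450.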

[1] = read-out: Activity (IC50, inhibition of TNFα binding to TNFα R1/Fc)

| IC50 [1] [µM] | Compound | IC50 (Activity (IC50, inhibition of TNFα binding to TNFα R1/Fc)) [µM] |
| --- | --- | --- |
| > 100 | O=C1COc2ccc(cc2)C[C@@H](C(=O)O)NC(=O)[C@@H](Cc2ccc(-c3ccccc3)cc2)NC(=O)[C@H](Cc2ccc(-c3ccccc3)cc2)NC(=O)[C@@H](Cc2cccs2)N1 [Compound 530] | – |
| 10 to 30 | O=C(O)[C@@H]1Cc2ccc(cc2)NC(=O)[C@H](O)[C@@H](O)C(=O)N[C@H](Cc2cccs2)C(=O)N[C@@H](Cc2ccc(-c3ccccc3)cc2)C(=O)N[C@H](Cc2ccccc2Cl)C(=O)N1 [Compound 286] | – |
| > 100 | O=C1CCC(=O)N[C@H](Cc2cccs2)C(=O)N[C@@H](Cc2ccc(O)cc2)C(=O)N[C@H](Cc2ccccc2)C(=O)N[C@H](C(=O)O)Cc2ccc(cc2)N1 [Compound 87] ([d2Thi]Y[dF][Phe(4-NH2)]-OH; linker N-4 via Suc) | – |
| > 100 | O=C1COc2ccc(cc2)C[C@@H](C(=O)NS(=O)(=O)c2ccccc2)NC(=O)[C@H](CCc2ccccc2)NC(=O)[C@@H](Cc2ccc(-c3ccccc3)cc2)NC(=O)[C@H](Cc2cccs2)N1 [Compound 483] | – |
| < 10 | O=C1COc2ccc(cc2)C[C@@H](C(=O)O)NC(=O)[C@H](Cc2ccc(Cl)cc2Cl)NC(=O)[C@@H](Cc2ccc(-c3ccccc3)cc2)NC(=O)[C@H](Cc2ccncc2)N1 [Compound 650] | – |
| > 100 | O=C(O)CCC(=O)N[C@H]1CNC(=O)c2ccc(cc2)C[C@@H](C(=O)O)NC(=O)[C@@H](Cc2ccccc2)NC(=O)[C@H](Cc2ccc(-c3ccccc3)cc2)NC(=O)[C@@H](CCc2ccccc2)NC1=O [Compound 267] (Suc-[Dap][d(hPhe)][Bip][dF][Phe(4-COOH)]-OH; lactam 1-5) | – |
| > 100 | C[C@H](NC(=O)[C@@H]1Cc2ccc(cc2)NC(=O)CCC(=O)N[C@H](Cc2cccs2)C(=O)N[C@@H](Cc2ccc(-c3ccccc3)cc2)C(=O)N[C@H](CCc2ccccc2)C(=O)N1)C(=O)O [Compound 447] ([d2Thi][Bip][d(hPhe)][Phe(4-NH2)]A-OH; linker N-4 via Suc) | – |
| < 10 | O=C1COc2ccc(cc2)C[C@@H](C(=O)N[C@H](CO)C(=O)O)NC(=O)[C@H](CCc2ccccc2)NC(=O)[C@@H](Cc2ccc(-c3ccccc3)cc2)NC(=O)[C@H](Cc2ccc(-c3ccccc3)cc2)N1 [Compound 571] | – |
| > 100 | O=C1N[C@H](Cc2ccccc2)C(=O)N[C@@H](C(=O)O)Cc2ccc(cc2)NC(=O)[C@H](O)[C@@H](O)C(=O)N[C@@H](Cc2cccs2)C(=O)N[C@H]1Cc1ccc(-c2ccccc2)cc1 [Compound 277] | – |
| > 100 | O=C1COc2ccc(cc2)C[C@@H](C(=O)N[C@@H](Cc2ccccc2)C(=O)O)NC(=O)[C@H](CCc2ccccc2)NC(=O)[C@@H](Cc2ccc(-c3ccccc3)cc2)NC(=O)[C@H](Cc2ccc(-c3ccccc3)cc2)N1 [Compound 574] | – |
| > 100 | O=C1N[C@@H](Cc2ccccc2)C(=O)N[C@@H](C(=O)O)Cc2ccc(cc2)NC(=O)[C@H](O)[C@@H](O)C(=O)N[C@@H](Cc2cccs2)C(=O)N[C@H]1Cc1ccc(-c2ccccc2)cc1 [Compound 280] | – |
| > 100 | O=C1CCC(=O)N[C@H](Cc2ccc(O)cc2)C(=O)N[C@@H](Cc2ccc(-c3ccccc3)cc2)C(=O)N[C@H](Cc2ccccc2)C(=O)N[C@H](C(=O)O)Cc2ccc(cc2)N1 [Compound 121] ([dY][Bip][dF][Phe(4-NH2)]-OH; linker N-4 via Suc) | – |
| > 100 | O=C(O)[C@@H]1Cc2ccc(cc2)NC(=O)[C@@H]2CCCC[C@@H]2C(=O)N[C@H](Cc2cccs2)C(=O)N[C@@H](Cc2ccc(-c3ccccc3)cc2)C(=O)N[C@H](Cc2ccccc2)C(=O)N1 [Compound 187] | – |
| 30 to 100 | O=C1N[C@H](Cc2ccccc2)C(=O)N[C@@H](C(=O)O)Cc2ccc(cc2)NC(=O)[C@H](O)[C@@H](O)C(=O)N[C@H](Cc2cccs2)C(=O)N[C@H]1Cc1ccc(Br)cc1 [Compound 242] | – |
| > 100 | O=C(O)[C@@H]1Cc2ccc(cc2)NC(=O)[C@H](O)[C@@H](O)C(=O)N[C@H](Cc2cccs2)C(=O)N[C@@H](Cc2ccc(-c3ccccc3)cc2)C(=O)N[C@@H](Cc2ccccc2)C(=O)N1 [Compound 268] | – |
| 30 to 100 | N#Cc1ccccc1C[C@H]1NC(=O)CCC(=O)Nc2ccc(cc2)C[C@@H](C(=O)O)NC(=O)[C@@H](Cc2ccccc2)NC(=O)[C@H](Cc2ccc(C(F)(F)F)cc2)NC1=O [Compound 129] ([dPhe(2-CN)][Phe(4-CF3)][dF][Phe(4-NH2)]-OH; linker N-4 via Suc) | – |
| 10 to 30 | O=C1COc2ccc(cc2)C[C@@H](C(=O)O)NC(=O)[C@@H](CCc2ccccc2)NC(=O)[C@H](Cc2ccc(Cl)cc2Cl)NC(=O)[C@@H](CCc2ccccc2)N1 [Compound 149] | – |
| < 10 | O=C(O)CCCNC(=O)[C@@H]1Cc2ccc(cc2)OCC(=O)N[C@@H](Cc2c[nH]c3ccccc23)C(=O)N[C@H](Cc2ccc(-c3ccccc3)cc2)C(=O)N[C@@H](CCc2ccccc2)C(=O)N1 [Compound 720] | – |
| < 10 | CN(CCS(=O)(=O)O)C(=O)[C@@H]1Cc2ccc(cc2)OCC(=O)N[C@@H](Cc2cccs2)C(=O)N[C@H](Cc2ccc(-c3ccccc3)cc2)C(=O)N[C@@H](CCc2ccccc2)C(=O)N1 [Compound 605] | – |
| > 100 | O=C1COc2ccc(cc2)C[C@@H](C(=O)O)NC(=O)[C@H](Cc2ccc(F)cc2)NC(=O)[C@@H](Cc2ccc(-c3ccccc3)cc2)NC(=O)[C@H](Cc2cccs2)N1 [Compound 627] | – |
| 30 to 100 | O=C1CCC(=O)N[C@H](Cc2cccs2)C(=O)N[C@@H](Cc2ccc(Cl)cc2)C(=O)N[C@H](Cc2ccccc2)C(=O)N[C@H](C(=O)O)Cc2ccc(cc2)N1 [Compound 105] ([d2Thi][Phe(4-Cl)][dF][Phe(4-NH2)]-OH; linker N-4 via Suc) | – |
| > 100 | CC(=O)O[C@H]1C(=O)Nc2ccc(cc2)C[C@H](C(=O)O)NC(=O)[C@@H](Cc2ccccc2)NC(=O)[C@H](Cc2ccc(Br)cc2)NC(=O)[C@@H](Cc2cccs2)NC(=O)[C@@H]1OC(C)=O [Compound 232] ([d2Thi][Phe(4-Br)][dF][dPhe(4-NH2)]-OH; linker N-4 via Tartaroyl(2R,3R-(OAc)2)) | – |
| 10 to 30 | O=C1CCC(=O)N[C@H](CCc2ccccc2)C(=O)N[C@@H](Cc2cccc(-c3ccccc3)c2)C(=O)N[C@H](Cc2ccccc2)C(=O)N[C@H](C(=O)O)Cc2ccc(cc2)N1 [Compound 113] ([d(hPhe)][Phe(3-Ph)][dF][Phe(4-NH2)]-OH; linker N-4 via Suc) | – |
| – | O=C1COc2ccc(cc2)C[C@@H](C(=O)N[C@H](CO)C(=O)O)NC(=O)[C@H](CCc2ccccc2)NC(=O)[C@@H](Cc2ccc(-c3ccccc3)cc2)NC(=O)[C@H](Cc2ccncc2)N1 [Compound 555] | < 10 |
| 30 to 100 | O=C1CCC(=O)N[C@H](Cc2ccsc2)C(=O)N[C@@H](Cc2ccc(-c3ccccc3)cc2)C(=O)N[C@H](Cc2ccccc2)C(=O)N[C@H](C(=O)O)Cc2ccc(cc2)N1 [Compound 122] ([d3Thi][Bip][dF][Phe(4-NH2)]-OH; linker N-4 via Suc) | – |
| < 10 | O=C1COc2ccc(cc2)C[C@@H](C(=O)O)NC(=O)[C@H](CCc2ccccc2)NC(=O)[C@@H](CCc2ccccc2)NC(=O)[C@H](CCc2ccccc2)N1 [Compound 724] | – |
| 30 to 100 | O=C1COc2ccc(cc2)C[C@@H](C(=O)O)NC(=O)[C@H](Cc2ccccc2)NC(=O)[C@@H](Cc2ccc(-c3ccccc3)cc2)NC(=O)[C@@H](Cc2cccs2)N1 [Compound 211] | – |
| > 100 | O=C1CCC(=O)N[C@H](CCc2ccccc2)C(=O)N[C@@H](Cc2ccc(-c3ccccc3)cc2)C(=O)N[C@H](Cc2ccccc2)C(=O)N[C@H](C(=O)N2CCC(C(=O)O)C2)Cc2ccc(cc2)N1 (stereo partly shown) [Compound 353] ([d(hPhe)][Bip][dF][Phe(4-NH2)]-X1; linker N-4 via Suc) | – |
